Target: T1, DNA polymerase theta [1-894] (UniProt O75417)
T1 construct: 1-894
Assay: Biochemical Pol Theta (1-894) ATPase IC50 Assay
Method: The inhibition activities testing for the compound disclosed herein were carried out at room temperature in assay buffer containing 40 mM Tris pH 7.5, 20 mM MgCl2, 1 mM DTT, 0.01% BSA and 0.05% Tween-20. […] After 1 hour reaction, 5 μL ADP-Glo reagent (Promga V9102) was added and incubated for 40 minutes. 10 μL Kinase Detection reagent was added and incubated for 40 minutes. Luminescence was measured on a microplate reader (PHERAstar FSX, BMG labtech). The IC50 values were calculated based on inhibition of enzyme activity in the presence of increasing concentrations of compounds.

T1 sequence (O75417 1-894): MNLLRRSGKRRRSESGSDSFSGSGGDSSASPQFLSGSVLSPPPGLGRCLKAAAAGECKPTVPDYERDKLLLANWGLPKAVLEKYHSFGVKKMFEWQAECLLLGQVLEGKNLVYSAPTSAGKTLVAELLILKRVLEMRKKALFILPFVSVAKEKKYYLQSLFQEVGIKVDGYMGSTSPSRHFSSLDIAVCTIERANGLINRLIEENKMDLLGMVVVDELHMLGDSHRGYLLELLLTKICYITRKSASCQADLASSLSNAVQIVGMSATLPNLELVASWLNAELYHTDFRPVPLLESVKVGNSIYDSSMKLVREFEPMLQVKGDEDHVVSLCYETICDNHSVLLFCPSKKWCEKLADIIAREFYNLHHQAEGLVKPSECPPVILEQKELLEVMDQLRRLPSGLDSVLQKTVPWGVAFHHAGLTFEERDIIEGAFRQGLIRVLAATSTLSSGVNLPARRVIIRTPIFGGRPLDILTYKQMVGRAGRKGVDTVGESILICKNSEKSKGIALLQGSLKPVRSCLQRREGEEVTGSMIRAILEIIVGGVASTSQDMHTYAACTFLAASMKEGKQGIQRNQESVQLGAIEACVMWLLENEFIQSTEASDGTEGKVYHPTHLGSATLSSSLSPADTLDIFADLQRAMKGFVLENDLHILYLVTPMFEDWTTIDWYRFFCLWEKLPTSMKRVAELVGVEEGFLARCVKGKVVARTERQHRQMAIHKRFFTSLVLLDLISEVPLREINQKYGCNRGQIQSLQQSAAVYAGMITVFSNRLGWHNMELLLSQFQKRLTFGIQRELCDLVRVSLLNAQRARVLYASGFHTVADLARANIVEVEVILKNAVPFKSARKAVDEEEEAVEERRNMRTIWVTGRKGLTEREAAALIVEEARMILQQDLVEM

| IC50 [nM] | SMILES |
| --- | --- |
| 1560 | Cc1ccc(-c2ccc3nc(NC(=O)c4ccc(C#N)nc4N4CCOCC4)sc3n2)cc1 [US20250026766, Example 4] |
| 22 | COc1ccccc1-c1cnncc1C(=O)Nc1nc2ccc(-c3ccc(Cl)cc3OC(C)C)nc2s1 [US20250026766, Example 143] |
